The values that follow come from US10265383B2, “Treatment of radiation injury using ghrelin” (priority 2014, dated 2019).

Where no end group is shown, it is not given here. The star is where a group is joined. Octanoyl = CCCCCCCC(=O)*

For experiment [1], the system named is intestinal crypt apoptosis. In words: Intestinal TUNEL staining after WBI. The experiment is classed as in vivo, rat. As to conditions: jejunum, Day 7 after 10 Gy WBI; vehicle increased by 638% from sham. The procedure:
(§1) Animal model of whole body irradiation. Rats were exposed to whole body irradiation (WBI) of 10 Gray (Gy) using a Gammacell® 1000 Irradiator (Atomic Energy of Canada Ltd) [radiation source: Cesium-137 (^137Cs)] delivered at a dose rate of about 2.5 GY/min. The animals were sedated with intra-peritoneal pentobarbital (40 mg/kg BW) prior to irradiation. During radiation, the container rotated continuously in front of the radiation source for even exposure. The animals were then returned to their cages, and food and water were provided.
(§2) Blood and Tissue Collection after WBI. Rats exposed to 10 Gy WBI were treated with 20 nmol/rat human ghrelin once a day for 6 days starting at 24 h after radiation. At the 7th day, rats were euthanized, and blood, liver and the small intestine were removed under sterile conditions. The blood was allowed to clot and following centrifugation, the serum was transferred into pyrogenic free sterile tubes, and stored at −80° C. until further analysis. […]
TUNEL staining. The presence of apoptotic cells in the gut sections was assessed at the 7th day following WBI using a terminal deoxynucleotide transferase dUTP nick-end labeling (TUNEL) staining kit (Roche Diagnostics, Indianapolis, Ind.). […] TUNEL-positive cells in crypt were counted in 10 fields/section under a fluorescence microscope (200×), and the number of cells/crypt are shown.

In the next experiment the test system is pAkt. The experiment can be described thus: Western blot of jejunal pAkt expression. The experiment is classed as in vivo, rat. As to conditions: jejunum, Day 7 after 10 Gy WBI; versus vehicle. As to the method: as §1
Blood and Tissue Collection after WBI. Rats exposed to 10 Gy WBI were treated with 20 nmol/rat human ghrelin once a day for 6 days starting at 24 h after radiation. At the 7th day, rats were euthanized, and blood, liver and the small intestine were removed under sterile conditions. […]
Western blot analysis. […] After overnight incubation with the primary antibodies at 4° C., the membranes were washed with TBS-T Immunoreactive bands were detected using HRP-linked secondary antibody (Southern Biotech, Birmingham, Ala.) and the Enhanced Chemiluminescence (ECL) Western blot detection kit (Amersham, Piscataway, N.J.). The immunoblots were exposed to X-ray film and analyzed with the NIH Image J analysis system. […]
(In general: A western blot detects proteins with antibodies after separation by electrophoresis.)

The subject of the next experiment is serum endotoxin. The experiment can be described thus: Serum endotoxin levels (LAL assay). The experiment is classed as in vivo. Particulars: Day 7 after 10 Gy WBI; 20 nmol/rat for 6 days from 24 h. The procedure:
as §1, §2
Serum endotoxin levels. Bacterial endotoxin levels in the serum were determined by the endpoint Chromogenic Limulus Amebocyte Lysate (LAL) assay (QC-1000, Lonza, Walkervilles, Md. USA) and expressed in EU/ml. Samples were analyzed according to manufacturer's instruction. Endotoxin levels which are ≥0.1EU/ml can be measured using this assay.

The test system of the next experiment is rat jejunum. In words: Histopathology of jejunum after WBI (H&E, PAS). The experiment is classed as in vivo. Particulars: Day 7 after 10 Gy WBI. The procedure:
as §1
Blood and Tissue Collection after WBI. Rats exposed to 10 Gy WBI were treated with 20 nmol/rat human ghrelin once a day for 6 days starting at 24 h after radiation. At the 7th day, rats were euthanized, and blood, liver and the small intestine were removed under sterile conditions. The blood was allowed to clot and following centrifugation, the serum was transferred into pyrogenic free sterile tubes, and stored at −80° C. until further analysis. Liver (0.25 g) was snap-frozen in liquid nitrogen and stored at −80° C. for subsequent bacterial translocation analysis. Small intestine, 10-15 cm of the ileum, was harvested for gut permeability studies, 10 cm of jejunum was collected for histopathology, and the remaining 10 cm jejunal segment each was collected for RNA and protein analyses.
Histopathology. Jejunal segments were fixed in 1:10 buffered formalin and embedded in paraffin. Tissue blocks were sectioned at a thickness of 5 μm, transferred to glass slides, and stained with hematoxylin and eosin (H&E). The sections were observed under 100× magnification using a Nikon Eclipse Ti inverted microscope equipped with the Nikon Digital Sight Camera (Nikon Inc. Melville, N.Y.). Villus height was determined by measuring the distance from villus-crypt junction to the villus tip and crypt depth was determined by the distance from villus-crypt junction to basal crypt cells using the Nikon software. For each rat, 100 measurements of villus height and crypt depth were obtained from 5 circumferences. Periodic Acid Schiff (PAS) stained sections were used to quantify the number of goblet cells per villus. Three rats in each group were used to calculate the mean.

The test system of a further experiment is serum albumin. The experiment can be described thus: Serum albumin level after WBI. The experiment is classed as in vivo, rat. As to conditions: Day 7 after 10 Gy WBI; WBI decreased it by 19%. The procedure:
as §1
Blood and Tissue Collection after WBI. Rats exposed to 10 Gy WBI were treated with 20 nmol/rat human ghrelin once a day for 6 days starting at 24 h after radiation. At the 7th day, rats were euthanized, and blood, liver and the small intestine were removed under sterile conditions. The blood was allowed to clot and following centrifugation, the serum was transferred into pyrogenic free sterile tubes, and stored at −80° C. until further analysis. Liver (0.25 g) was snap-frozen in liquid nitrogen and stored at −80° C. for subsequent bacterial translocation analysis. […]
Serum glucose and albumin levels. Serum levels of glucose and albumin were determined using Liquid Glucose Hexokinase Reagent Set and Albumin Reagent Set (Pointe Scientific, Inc.) respectively according to manufacturer's instructions.

The nature of experiment [2]: Percent body weight change after WBI. The experiment is classed as in vivo, rat. Particulars: 10 Gy WBI rats; treatment starting at 24 h; 30 day period. The procedure:
as §1
Survival study. To assess the survival benefits of human ghrelin, animals were exposed to 10 Gy WBI and treated with human ghrelin (20 nmol/rat) subcutaneously once a day, with the first dose given either at 24 h or 48 h after WBI, for 6 days and observed for 30 days, and the survival recorded. The surviving animals beyond 30 days were then euthanized. Rats in the survival study were monitored twice daily and weighed once a day during the 30 day survival period. Net weight change was calculated as: % Weight Change ((weight at each day−weight at day 0)/weight at day 0)×100.

For the substance “ghrelin (GSS(Octanoyl)FLSPEHQRVQQRKESKKPPAKLQPR; listed as Homo sapiens) [human ghrelin]”, the “apoptotic (TUNEL positive) cells/crypt, reduction” value in experiment [1] turned out to be 62%. Besides, the “intestinal pAkt expression” value with pAkt is “further significantly increased”. The “serum endotoxin levels, decrease” value in the experiment with serum endotoxin was determined as 42%. The “intestinal integrity and morphology (H&E)” value in the experiment with rat jejunum (6 days treatment starting at 24 h) is “improved the intestinal integrity and morphology”. The “goblet cell number/villus, increase from Sham” value in the experiment on rat jejunum (jejunum PAS stain, vehicle 29%) amounted to 5%. Also, the “crypt depth, reduction from Sham” value in the experiment with rat jejunum (jejunum, 20 nmol/rat for 6 days from 24 h, vehicle 14%) is reported as 2.8%. Besides, the “villus length, reduction from Sham” value with rat jejunum (jejunum, 20 nmol/rat for 6 days from 24 h, vehicle 19%) is 2.0%. In the experiment with serum albumin, the serum albumin levels entry is reported as “restored to sham values”. For the same substance, the “percent body weight change” value in experiment [2] is on record as “consistent increase in the body weight”.
